Some test systems named below: OVCAR-8; HL-60; RXF 393; A498; CCRF-CEM; A549; Malme-3M; SF-539; T47D; SNB-19; HOP-92; TK-10; DU-145; HCC 2998; SR; UACC-62; MDA-MB-231; SK-OV-3; Hs-578T; NCI/ADR-RES.
What all share (assay): NCI anticancer screen, dose series, 48 h

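Where inhibition never reached the appropriate level, the endpoint shown equals the highest concentration tested. Otherwise, values were interpolated linearly from a five-concentration, 48-hour dose response in 96-well plates. GI50: concentration for 50% inhibition of growth.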 The source made the active and inactive calls. Rule as the data show it: active = GI50 up to about 1.1 µM and inactive = higher.

As to `BrCC[N+]12CCCN1CCC2`, the GI50 is 19 µM (inactive) with OVCAR-8; 2.9 µM (inactive) with HL-60; 14 µM (inactive) in the assay with RXF 393; 45.9 µM (inactive) in the assay with A498; 1.59 µM (inactive) with CCRF-CEM; 41.1 µM (inactive) with A549. Besides, the GI50 with Malme-3M is 2.32 µM (inactive); in the assay with SF-539, 15.2 µM (inactive); in the assay on T47D, 9.93 µM (inactive); in the assay on SNB-19, > 43 µM (inactive); in the assay with HOP-92, 5.22 µM (inactive); in the assay on TK-10, 14.5 µM (inactive). For the same compound, the GI50 in the assay with DU-145 is 45.3 µM (inactive); in the assay on HCC 2998 it was 22.3 µM (inactive); in the assay with SR, 1.68 µM (inactive); in the assay on UACC-62, 8.83 µM (inactive); with MDA-MB-231, 17.5 µM (inactive); with SK-OV-3 it was > 65.5 µM (inactive). Besides, in the assay with Hs-578T, the GI50 was 0.692 µM (active).

`CC1(c2nc3ccccc3[nH]2)CCC(CO)C(C)(C)O1` (centres undefined): the GI50 in the assay with OVCAR-8, with HL-60, in the assay with RXF 393, in the assay with CCRF-CEM, in the assay with A549 and in the assay with Malme-3M was > 100 µM (inactive) in each case. The GI50 in the assay with SF-539, in the assay on T47D, in the assay on SNB-19, in the assay on HOP-92, in the assay with TK-10 and in the assay with DU-145 was > 100 µM (inactive) throughout. Besides, the GI50 is > 100 µM (inactive) in the assay on NCI/ADR-RES; > 100 µM (inactive) in the assay on HCC 2998; 16.1 µM (inactive) in the assay on SR; > 100 µM (inactive) with UACC-62; > 100 µM (inactive) with MDA-MB-231; > 100 µM (inactive) in the assay on SK-OV-3. The GI50 in the assay with Hs-578T was > 100 µM (inactive).

For the compound `CC(C)OP(=O)(OC(C)C)c1ccc2c(c1)OCCOCCOCCOCCO2`, the GI50 with OVCAR-8, in the assay on HL-60, in the assay with A498, in the assay with CCRF-CEM, in the assay with A549 and in the assay with Malme-3M was > 100 µM (inactive) throughout. Further, the GI50 in the assay on SF-539, with T47D, with SNB-19, in the assay with TK-10, with DU-145 and in the assay with HCC 2998 was > 100 µM (inactive) each time. Further, the GI50 in the assay on SR, in the assay on UACC-62, in the assay on MDA-MB-231, with SK-OV-3 and with Hs-578T was > 100 µM (inactive) throughout.

`COc1ccc(N2C(=O)c3c4c(c5c([nH]c6ncccc65)c3C2=O)CCC(C(C)(C)C)C4)cc1` (centres undefined): the GI50 in the assay on OVCAR-8 was > 100 µM (inactive); in the assay with HL-60 it was > 100 µM (inactive); in the assay with RXF 393 it was 34.6 µM (inactive); with CCRF-CEM it was > 100 µM (inactive); in the assay on A549 it was > 100 µM (inactive); with SF-539, 41.9 µM (inactive). For the same compound, the GI50 is > 100 µM (inactive) in the assay with T47D; 65.3 µM (inactive) in the assay on SNB-19; 66.4 µM (inactive) with TK-10; > 100 µM (inactive) in the assay with DU-145; > 100 µM (inactive) with NCI/ADR-RES; > 100 µM (inactive) with HCC 2998. Moreover, the GI50 in the assay with SR was > 100 µM (inactive); with UACC-62 it was 30.3 µM (inactive); in the assay on MDA-MB-231 it was > 100 µM (inactive); in the assay on SK-OV-3 it was 40.6 µM (inactive); with Hs-578T, 28.8 µM (inactive).

Consider `CN1CCc2c(sc3nc(S)nc(S)c23)C1`, for which the GI50 with OVCAR-8, in the assay on HL-60, with RXF 393, in the assay on CCRF-CEM, in the assay on A549 and in the assay with Malme-3M was > 100 µM (inactive) in each case. Also, the GI50 in the assay with SF-539, with T47D, with SNB-19, with HOP-92, in the assay with TK-10 and in the assay on DU-145 was > 100 µM (inactive) in each case. Further, the GI50 in the assay with NCI/ADR-RES was > 100 µM (inactive); in the assay on SR, > 100 µM (inactive); with UACC-62, > 100 µM (inactive); with MDA-MB-231 it was 39.5 µM (inactive); with SK-OV-3 it was > 100 µM (inactive); with Hs-578T it was > 100 µM (inactive).

With `CCOC(=O)/C(=N/Nc1ccccc1)N1C(=S)N(C)N=C(C)C=C1S`, the GI50 with OVCAR-8 is > 100 µM (inactive); in the assay on HL-60, > 100 µM (inactive); in the assay on RXF 393, 0.465 µM (active); in the assay on CCRF-CEM, > 100 µM (inactive); with A549, > 100 µM (inactive); in the assay with SF-539 it was > 100 µM (inactive). Moreover, the GI50 was 44.2 µM (inactive) in the assay on T47D; > 100 µM (inactive) with SNB-19; 47.8 µM (inactive) in the assay with HOP-92; 86.1 µM (inactive) in the assay on TK-10; > 100 µM (inactive) in the assay on DU-145; > 100 µM (inactive) with NCI/ADR-RES. Further, the GI50 in the assay on HCC 2998 is > 100 µM (inactive); with SR, > 100 µM (inactive); in the assay on UACC-62, 83.4 µM (inactive); in the assay with MDA-MB-231 it was 43.9 µM (inactive); with SK-OV-3, > 100 µM (inactive); in the assay on Hs-578T it was 70 µM (inactive).

On to `COc1cccc(Nc2nc(-c3cccs3)nc3ccc(Br)cc23)c1`, for which the GI50 in the assay on OVCAR-8 is 39.2 µM (inactive); in the assay with HL-60, > 100 µM (inactive); with A498, > 100 µM (inactive); in the assay with CCRF-CEM, 0.0101 µM (active); in the assay with A549 it was 76.4 µM (inactive); with Malme-3M it was 72.9 µM (inactive). Further, the GI50 in the assay on SF-539 was 94.2 µM (inactive); in the assay with T47D it was > 100 µM (inactive); in the assay on SNB-19, 25.5 µM (inactive); with HOP-92 it was 31.4 µM (inactive); with TK-10 it was 36.7 µM (inactive); in the assay with DU-145, > 100 µM (inactive). Also, the GI50 in the assay with NCI/ADR-RES was 40.5 µM (inactive); in the assay on SR, 1.48 µM (inactive); in the assay on UACC-62, 66.2 µM (inactive); in the assay on MDA-MB-231, 37.8 µM (inactive); in the assay with SK-OV-3 it was 70 µM (inactive); in the assay with Hs-578T, > 100 µM (inactive).

For `OC(c1ccoc1)c1cc2ccccc2s1` (centres undefined), the GI50 with OVCAR-8, in the assay on HL-60, in the assay with RXF 393, in the assay with CCRF-CEM, with A549 and in the assay with SF-539 was > 10 µM (inactive) throughout. The GI50 in the assay with T47D, in the assay on SNB-19, in the assay on HOP-92, in the assay with TK-10, with DU-145 and in the assay on NCI/ADR-RES was > 10 µM (inactive) throughout. Moreover, the GI50 with HCC 2998, in the assay on SR, in the assay on UACC-62, in the assay on MDA-MB-231, in the assay with SK-OV-3 and with Hs-578T was > 10 µM (inactive) throughout.

As to `OC1CSCCSCCCSCCSC1`, the GI50 with OVCAR-8 is > 100 µM (inactive); in the assay on HL-60, 50.2 µM (inactive); with RXF 393, > 100 µM (inactive); with A498, > 100 µM (inactive); in the assay on A549, > 100 µM (inactive); in the assay on SF-539, > 100 µM (inactive). The GI50 in the assay with T47D, in the assay on SNB-19, in the assay on HOP-92, with TK-10, in the assay with DU-145 and with HCC 2998 was > 100 µM (inactive) throughout. The GI50 in the assay on UACC-62, in the assay on MDA-MB-231, in the assay on SK-OV-3 and in the assay on Hs-578T was > 100 µM (inactive) in each case.

Take `CC1(C)C[C@H]2C=C(C=O)[C@]34C[C@]3(C(=O)OC4O)[C@H]2C1` (some centres undefined): the GI50 in the assay with OVCAR-8 was 1.1 µM (active); with HL-60, 1.92 µM (inactive); in the assay with A498, 3.06 µM (inactive); in the assay with CCRF-CEM, 0.813 µM (active); in the assay on A549, 2.83 µM (inactive); with Malme-3M, 1.73 µM (inactive). Besides, the GI50 in the assay on SF-539 was 1.68 µM (inactive); in the assay on T47D, 0.459 µM (active); with SNB-19, 11.4 µM (inactive); in the assay with HOP-92, 2.17 µM (inactive); with TK-10, 1.77 µM (inactive); with DU-145 it was 2.22 µM (inactive). In addition, the GI50 was 2.95 µM (inactive) with HCC 2998; 2.56 µM (inactive) in the assay with SR; 1.97 µM (inactive) with UACC-62; 1.48 µM (inactive) in the assay on MDA-MB-231; 16 µM (inactive) in the assay with SK-OV-3; 3.21 µM (inactive) in the assay on Hs-578T.

For the compound `CCCCOC(=O)NC(Nc1ccc(S(N)(=O)=O)cc1)(C(F)(F)F)C(F)(F)F`, the GI50 with HL-60, with RXF 393, in the assay with A498, in the assay with CCRF-CEM, in the assay on Malme-3M and in the assay on SF-539 was > 100 µM (inactive) throughout. Besides, the GI50 in the assay with T47D, with SNB-19, in the assay on TK-10, in the assay on DU-145, in the assay on HCC 2998 and in the assay with SR was > 100 µM (inactive) in each case. The GI50 in the assay on UACC-62, with MDA-MB-231, with SK-OV-3 and with Hs-578T was > 100 µM (inactive) in each case.

The record behind these values is ChEMBL document CHEMBL1201862, “PubChem BioAssay data set” (2004).
